From patent publication US11229810B2, “Methods and systems for producing neuronal lesions using magnetic resonance and acoustic energy” (University of Virginia Patent Foundation, priority 2017, dated 2022)

Tested on: lateral aspect of the hippocampus
Assay: MRgFUS + microbubbles + QA lesion study in rats, followed by T2-TSE MR imaging
Type: in vivo, Male Sprague Dawley rats
Settings: rat, QA 0.06 mmol (1 ml of 10 mg/ml) intraperitoneally once per day for 4 days beginning 2 days prior to insonification, saline-treated animals normal
Method: An illustrative example is described below, concerning a study of techniques herein as applied to a particular subject. Male Sprague Dawley rats (e.g., 5-6 weeks of age (120-150 g)), were divided into two groups receiving the following treatments: 1) MRgFUS+microbubbles+saline (n=5), or 2) MRgFUS+microbubbles+QA (n=5). QA was dissolved in 0.1M PBS (10 mg/ml). Either 1 ml of the QA solution (0.06 mmol) or 1 ml of saline was injected intraperitoneally once per day for 4 days beginning 2 days prior to insonification. Phospholipid encapsulated microbubbles (mean size: ˜5 um; concentration: 6×10^8 microbubbles/ml; volume injected: 300 μl/kg) and Gadodiamide contrast (Omniscan, 0.2 ml/kg) were delivered via the tail vein just prior to sonification.
An acoustic energy delivery system was configured in a manner similar to that discussed above as in system 100 and in this illustrative example, the system included an MR-compatible, pre-focused, 8-element annular array comprising 1.5 MHz transducers 111 (e.g., having spherical radius=20 mm±2 mm, active diameter=25 mm [focal ratio=0.8]; an ultrasonic transducer with 80% electric-acoustic efficiency, which was connected to a phased array generator and RF power amplifier. An MR-compatible motorized positioning stage was used to move the transducer in the rostral-caudal and medial-lateral directions. […]

O=C(O)c1cccnc1C(=O)O [QA, quinolinic acid]
T2-TSE imaging appearance of brain, 24 hours post-insonification (24 hours post-insonification): exhibited hyperintensity in the area of insonification
T2-TSE imaging appearance of brain, 7 days post-insonification (7 days post-insonification, no evidence of a lesion): exhibited signs of damage in the region of insonification
